Consider eleven compounds from patent US11766447B2, “3′3′-cyclic dinucleotide analogue comprising a cyclopentanyl modified nucleotide as sting modulator” (INSTITUTE OF ORGANIC CHEMISTRY AND BIOCHEMISTRY ASCR, V.V.I., priority 2019, dated 2023).

In assay [1] the target is T1, WT STING (Homo sapiens, UniProt Q86WV6, H232R). As to the kind of experiment: Digitonin assay using 293T wtSTING-FL reporter cells. It counts as cell-based. Details: host or cells: 293T (ATCC CRL-3216), stably transfected, with 4xISRE firefly luciferase reporter. The settings on record: 293T wtSTING-FL cells, ISRE firefly luciferase; compounds in Digitonin buffer 30 minutes, then 5 hours; 8-point curve. The source says: Two complementary oligonucleotides of the sequence […] […] […] […] […] The oligonucleotides were mixed in equal molar amounts, hybridized, and cleaved by restriction endonucleases HindIII (cat. #. R0104S, NEB, Ipswich, USA) and BglII (cat. #R0144S, NEB, Ipswich, USA). Ultimately, they were ligated into plasmid pGL4.27 (cat. #E6651, Promega, Madison, USA) linearized with the same enzymes. As result the sequence with four ISRE sites was placed upstream of the minimum promoter of firefly luciferase reporter gene.
After 5 minutes incubation at room temperature (RT), 250 μL of the mixture was added dropwise to the cells in one well. Cells were incubated 36 hours at 37° C. with 5% CO2, and then detached with 0.05% Trypsin and 0.22 g/L EDTA (both cat. #L0941, Biowest, Riverside, USA).
Transfected cells were seeded onto poly-D-lysine coated six well plates at density 50,000 cells per 1 cm^2 in DMEM medium with high glucose containing 10% heat inactivated FBS, 30 μg/mL blasticidin (cat. #ant-b1-05, InvivoGen, San Diego, USA), 0.06 mg/ml Penicillin G and 0.1 mg/ml Streptomycin Sulfate (both cat. #. L0018, Biowest, Riverside, USA). The medium was replenished every 3-4 days until visible colonies of cells resistant to blasticidin were formed.
Blasticidin resistant cells stably expressing WT STING were further transfected with […] plasmid following the same procedure as described above. […] Homogeneous culture of stably double transfected cells was prepared by limiting dilution of cells in 96 well plates and wells with cells were selected that originated from a single cell.
The medium was removed next day and three fold serial dilutions of compounds in Digitonin buffer containing 50 mmol·l^−1 HEPES (cat. #H3375, Sigma Aldrich, Czech Republic) pH 7.0, 100 mmol·l^−1 KCl, 3 mmol·l^−1 MgCl2, 0.1 mmol·l^−1 DTT (cat. #D0632, Sigma Aldrich, Czech Republic), 85 mmol·l^−1 Sucrose (cat. #S7903, Sigma Aldrich, Czech Republic), 0.2% BSA (cat. #A2153, Sigma Aldrich, Czech Republic), 1 mmol·l^−1 ATP (cat. #A1852, Sigma Aldrich, Czech Republic), 0.1 mmol·l^−1 GTP (cat. #G8877, Sigma Aldrich, Czech Republic), and 10 μg/mL Digitonin A (cat. #D141, Sigma Aldrich, Czech Republic) were added to the cells. The buffer was removed after 30 minutes incubation at 37° C. with 5% CO2, the cells were washed once with 100 μl of cultivation medium, and 100 μl of medium was added to each well. The plates with cells were incubated for 5 hours at 37° C. with 5% CO2, 50 μl of the medium was removed and 30 μl of ONE-Glo™ Luciferase Assay System reagent (cat. #E6120, Promega, Madison, USA) was added to each well. Luminescence was read on Synergy H1 (Biotek, Winooski, USA). GraphPad Prism (La Jolla, USA) was used to calculate the 50% effective concentration ([…] from an 8-point dose-response curve.
Target sequence in this assay (Q86WV6 whole entry H232R): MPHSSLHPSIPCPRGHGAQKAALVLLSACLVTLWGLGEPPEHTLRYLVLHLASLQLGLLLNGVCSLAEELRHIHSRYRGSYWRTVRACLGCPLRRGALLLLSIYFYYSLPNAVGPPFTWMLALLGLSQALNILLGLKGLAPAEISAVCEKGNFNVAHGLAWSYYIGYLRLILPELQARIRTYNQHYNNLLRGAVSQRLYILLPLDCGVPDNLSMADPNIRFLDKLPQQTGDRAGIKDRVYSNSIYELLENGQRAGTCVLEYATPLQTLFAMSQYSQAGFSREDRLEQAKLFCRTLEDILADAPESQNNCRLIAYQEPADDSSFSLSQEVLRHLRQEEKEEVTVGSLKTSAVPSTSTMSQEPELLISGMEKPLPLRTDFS

In another assay the target is T2, AQ STING (G230A-R293Q) (Homo sapiens, UniProt Q86WV6, G230A/H232R/R293Q).
T2 construct: 8xHis (N, cleaved yes); SUMO (N, cleaved yes); made in house; host or cells: E. coli Rosetta-gami B (DE3)
As to the kind of experiment: Differential scanning fluorimetry (DSF) with AQ STING. It counts as binding. The settings on record: thermal shift vs apoprotein; 150 μM CDN; truncated human AQ STING 0.1 mg/ml. The method, then: (§1) Purified PCR products were cleaved with restriction enzymes BamHI (cat. #R0136S, NEB, Ipswich, USA) and NotI (cat. #R0189S, NEB, Ipswich, USA) and cloned into the pSUMO vector linearized with the identical enzymes.
(§2) DNase I (cat. #D5025, Sigma Aldrich, Czech Republic) and RNase A (cat. #R6513, Sigma Aldrich, Czech Republic) were added (final concentration 50 μg/ml) together with MgCl2 (final concentration 5 mmol·l^−1) to the homogenate and bacteria were lysed using French Press G-M™ High-Pressure Cell Press Homogenizer (1500 psi, 3 cycles). […] The resin was poured into a chromatography column, washed with 50 ml buffer A (50 mmol·l^−1 TrisCl (pH 8.0), 800 mmol·l^−1 NaCl, 3 mmol·l^−1 β-mercaptoethanol; 10% glycerol; 20 mmol·l^−1 imidazol) and 8-His-SUMO tagged STING proteins were eluted with 15 ml buffer A containing 300 mmol·l^−1 imidazole. […] Proteins were concentrated with Amicon® Ultra-15 10 K device (cat. #UFC901008, Merck Millipore, Billerica, USA) and flash frozen in liquid N2.
(§3) 20 μL solutions of the reaction mixtures were pipetted in triplicates into 96 well optical reaction plates and thermal denaturation of samples were performed on real time PCR cycler (LightCycler® 480 Instrument II—Roche, Basel, Switzerland). The first derivative of the thermal denaturation curves was performed to calculate denaturing temperatures of STING-CDN complexes and STING apoproteins. The thermal shift for each CDN was calculated by subtracting the average denaturing temperature of STING apoprotein from the average denaturing temperature of STING CDN complex.
For orientation: Differential scanning fluorimetry follows unfolding on heating by fluorescence.

Assay [2] concerns the target T1, WT STING. As to the kind of experiment: Differential scanning fluorimetry (DSF) with WT STING. It counts as binding. Details: 8xHis (N, cleaved yes); SUMO (N, cleaved yes); made in house; host or cells: E. coli Rosetta-gami B (DE3). The settings on record: thermal shift vs apoprotein; 150 μM CDN; truncated human WT STING 0.1 mg/ml. The method, then:
as §1, §2, §3
Target sequence in this assay (Q86WV6 140-343 H232R): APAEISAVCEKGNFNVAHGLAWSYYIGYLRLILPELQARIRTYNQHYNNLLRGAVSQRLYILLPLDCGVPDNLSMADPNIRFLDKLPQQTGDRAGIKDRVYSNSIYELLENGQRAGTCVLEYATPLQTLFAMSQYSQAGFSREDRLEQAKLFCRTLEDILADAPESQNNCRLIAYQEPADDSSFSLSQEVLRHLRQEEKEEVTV

pEC50: −log10 of the molar value.

T2 sequence (Q86WV6 140-343 G230A/H232R/R293Q): as the sequence (Q86WV6 140-343 H232R) above, with G91A, R154Q counted along it

In general, pEC50 refers to the negative decadic logarithm of the EC50, by convention in mol/L. As for `Nc1ncnc2c1ncn2[C@@H]1C[C@@H]2COP(=O)(O)OC3C(F)[C@H](n4cnc5c(N)ncnc54)O[C@@H]3COP(=O)(S)OC2C1F` (single isomer, unassigned) [Compound 141b], the pEC50 at WT STING [1] is 7.30. The “DSF ΔTm (° C.) AQ STING” value on AQ STING (G230A-R293Q) came out at 11.6 °C. Besides, the “DSF ΔTm (° C.) WT STING” value on WT STING [2] stood at 5.3 °C.

For `Nc1ncnc2c1ncn2[C@@H]1O[C@@H]2COP(=O)(O)O[C@H]3[C@@H](O)[C@H](n4cnc5c(N)ncnc54)O[C@@H]3COP(=O)(O)O[C@H]2[C@H]1O` [3′3′c-di-AMP, reference compound], at WT STING [1], the pEC50 is 6.52. Besides, the “DSF ΔTm (° C.) AQ STING” value at AQ STING (G230A-R293Q) was found to be 9.3 °C. Also, the “DSF ΔTm (° C.) WT STING” value at WT STING [2] was determined as 2.6 °C.

For `Nc1nc2c(ncn2[C@@H]2O[C@@H]3COP(=O)(O)O[C@H]4[C@@H](O)[C@H](n5cnc6c(=O)[nH]c(N)nc65)O[C@@H]4COP(=O)(O)O[C@H]3[C@H]2O)c(=O)[nH]1` [3′3′c-di-GMP, reference compound], the pEC50 on WT STING [1] is 5.24. In addition, on AQ STING (G230A-R293Q), the “DSF ΔTm (° C.) AQ STING” value turned out to be 7.7 °C. Besides, the “DSF ΔTm (° C.) WT STING” value on WT STING [2] stood at 2.6 °C.

For the compound `Nc1nc2c(ncn2[C@@H]2C[C@@H]3COP(=O)(O)O[C@H]4[C@@H](O)[C@H](n5cnc6c(N)ncnc65)O[C@@H]4COP(=O)(O)O[C@H]3[C@H]2O)c(=O)[nH]1` [Compound 101, 2-amino-9-((2R,3R,3aS,7aR,9R,10S,10aR,14aR)-2-(6-amino-9H-purin-9-yl)-3,5,10,12-tetrahydroxy-5,12-dioxidodecahydro-2H-cyclopenta[d]furo[3,2-j][1,3,7,9]tetraoxa[2,8]diphosphacyclo-dodecin-9-yl)-1,9-dihydro-6H-purin-6-one], the pEC50 on WT STING [1] was 6.10. For the same compound, the “DSF ΔTm (° C.) AQ STING” value at AQ STING (G230A-R293Q) was determined as 11.3 °C. Also, the “DSF ΔTm (° C.) WT STING” value on WT STING [2] was 3.6 °C.

As a reminder, the ΔTm is the change in melting temperature against a reference sample. For `Nc1ncnc2c1ncn2[C@@H]1O[C@@H]2COP(=O)(O)OC3C(O)[C@H](n4cnc5c(=O)[nH]cnc54)C[C@@H]3COP(=O)(O)OC2C1O` (stereo partly drawn) [Compound 104, 9-((2R,3R,3a5,7aR,9R,10S,10aR,14aR)-2-(6-amino-9H-purin-9-yl)-3,5,10,12-tetrahydroxy-5,12-dioxidodecahydro-2H-cyclopenta[d]furo[3,2-j][1,3,7,9]tetraoxa[2,8]diphosphacyclododecin-9-yl)-1,9-dihydro-6H-purin-6-one], the pEC50 at WT STING [1] was 6.70. Further, the ΔTm at 150 µM at AQ STING (G230A-R293Q) is 11.4 °C; at WT STING [2], 3.4 °C.

Consider `Nc1nc2c(ncn2[C@@H]2C[C@@H]3COP(=O)(O)OC4C[C@H](n5cnc6c(N)ncnc65)O[C@@H]4COP(=O)(O)OC3C2O)c(=O)[nH]1` (stereo partly drawn) [Compound 106, 2-amino-9-((2R,3aS,7aR,9R,10S,10aR,14aR)-2-(6-amino-9H-purin-9-yl)-5,10,12-trihydroxy-5,12-dioxidodecahydro-2H-cyclopenta[d]furo[3,2-j][1,3,7,9]tetraoxa[2,8]diphosphacyclododecin-9-yl)-1,9-dihydro-6H-purin-6-one], for which the pEC50 on WT STING [1] was 6.40. The ΔTm at 150 µM at AQ STING (G230A-R293Q) was found to be 9 °C; at WT STING [2] it was 1.9 °C.

As to `Nc1ncnc2c1ncn2[C@@H]1O[C@@H]2COP(=O)(O)OC3C(O)[C@H](n4cnc5c(=O)[nH]cnc54)C[C@@H]3COP(=O)(O)OC2C1F` (stereo partly drawn) [Compound 107, 9-((2R,3R,3aR,7aR,9R,10S,10aR,14aR)-2-(6-amino-9H-purin-9-yl)-3-fluoro-5,10,12-trihydroxy-5,12-dioxidodecahydro-2H-cyclopenta[d]furo[3,2-j][1,3,7,9]tetraoxa[2,8]diphosphacyclododecin-9-yl)-1,9-dihydro-6H-purin-6-one], the pEC50 at WT STING [1] was 8.00. For the same compound, the ΔTm at 150 µM came to 16.7 °C at AQ STING (G230A-R293Q) and 7.6 °C on WT STING [2].

With `Nc1nc2c(ncn2[C@@H]2O[C@@H]3COP(=O)(O)OC4C(O)[C@H](n5cnc6c(N)ncnc65)C[C@@H]4COP(=O)(O)OC3C2O)c(=O)[nH]1` (stereo partly drawn) [Compound 108, 2-amino-9-((2R,3R,3aS,7aR,9R,10S,10aR,14aR)-9-(6-amino-9H-purin-9-yl)-3,5,10,12-tetrahydroxy-5,12-dioxidodecahydro-2H-cyclopenta[d]furo[3,2-j][1,3,7,9]tetraox[2,8]diphosphacyclododecin-2-yl)-1,9-dihydro-6H-purin-6-one], the negative logarithm of the EC50 (pEC50) at WT STING [1] is 7.40. For the same compound, the ΔTm at 150 µM on AQ STING (G230A-R293Q) was 14.3 °C; on WT STING [2], 5.2 °C.

`Nc1nc2c(ncn2[C@H]2CC3OP(=O)(O)OC[C@H]4C[C@@H](n5cnc6c(N)ncnc65)C(O)C4OP(=O)(O)OC[C@H]3O2)c(=O)[nH]1` (stereo partly drawn) [Compound 110, 2-amino-9-((2R,3a5,7aR,9R,10S,10aR,14aR)-9-(6-amino-9H-purin-9-yl)-5,10,12-trihydroxy-5,12-dioxidodecahydro-2H-cyclopenta[d]furo[3,2-j][1,3,7,9]tetraoxa[2,8]diphosphacyclododecin-2-yl)-1,9-dihydro-6H-purin-6-one]: at WT STING [1], the pEC50 was 7.30. Besides, the figures for the ΔTm at 150 µM on AQ STING (G230A-R293Q) and at WT STING [2] were 15.7 °C and 5.8 °C, respectively.

Turning to `Nc1nc2c(ncn2[C@@H]2O[C@@H]3COP(=O)(O)OC4C(O)[C@H](n5cnc6c(N)ncnc65)C[C@@H]4COP(=O)(O)OC3C2O)c(=O)[nH]1` (stereo partly drawn) [Compound 112, 2-amino-9-((2R,3S,3aS,7aR,9R,10S,10aR,14aR)-9-(6-amino-9H-purin-9-yl)-3,5,10,12-tetrahydroxy-5,12-dioxidodecahydro-2H-cyclopenta[d]furo[3,2-j][1,3,7,9]tetraoxa[2,8]diphosphacyclododecin-2-yl)-1,9-dihydro-6H-purin-6-one], on WT STING [1], the pEC50 was 6.92. Moreover, on AQ STING (G230A-R293Q), the “DSF ΔTm (° C.) AQ STING” value is 13.2 °C. Moreover, on WT STING [2], the “DSF ΔTm (° C.) WT STING” value worked out at 5.2 °C.

Take `Nc1nc2c(ncn2[C@@H]2C[C@@H]3COP(=O)(O)OC4C(O)[C@H](n5cnc6c(N)ncnc65)O[C@@H]4COP(=O)(O)OC3C2O)c(=O)[nH]1` (stereo partly drawn) [Compound 113, 2-amino-9-((2R,3S,3a5,7aR,9R,10S,10aR,14aR)-2-(6-amino-9H-purin-9-yl)-3,5,10,12-tetrahydroxy-5,12-dioxidodecahydro-2H-cyclopenta[d]furo[3,2-j][1,3,7,9]tetraoxa[2,8]diphosphacyclododecin-9-yl)-1,9-dihydro-6H-purin-6-one]: the pEC50 at WT STING [1] is 5.44. The figures for the ΔTm at 150 µM on AQ STING (G230A-R293Q) and on WT STING [2] were 7.9 °C and 2.1 °C, respectively.
